The target in assay [1] is T1, Serotonin 3 (5-HT3) receptor (Rattus norvegicus, UniProt P35563+Q9JJ16).
T1 sequence (P35563 whole entry): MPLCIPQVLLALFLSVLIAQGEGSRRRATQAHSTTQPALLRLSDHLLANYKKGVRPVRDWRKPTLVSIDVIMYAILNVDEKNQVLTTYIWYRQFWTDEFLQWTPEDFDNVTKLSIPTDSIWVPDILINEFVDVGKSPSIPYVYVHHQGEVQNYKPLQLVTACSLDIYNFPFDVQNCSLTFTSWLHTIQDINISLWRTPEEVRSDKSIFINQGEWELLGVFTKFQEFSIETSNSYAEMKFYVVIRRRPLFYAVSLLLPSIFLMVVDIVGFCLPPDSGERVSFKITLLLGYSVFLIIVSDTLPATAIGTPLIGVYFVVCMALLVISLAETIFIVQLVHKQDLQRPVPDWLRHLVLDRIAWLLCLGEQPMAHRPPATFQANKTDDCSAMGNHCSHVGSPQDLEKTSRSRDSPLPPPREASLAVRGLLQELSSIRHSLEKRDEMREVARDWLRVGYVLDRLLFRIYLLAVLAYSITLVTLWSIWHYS
T1 sequence (Q9JJ16 whole entry): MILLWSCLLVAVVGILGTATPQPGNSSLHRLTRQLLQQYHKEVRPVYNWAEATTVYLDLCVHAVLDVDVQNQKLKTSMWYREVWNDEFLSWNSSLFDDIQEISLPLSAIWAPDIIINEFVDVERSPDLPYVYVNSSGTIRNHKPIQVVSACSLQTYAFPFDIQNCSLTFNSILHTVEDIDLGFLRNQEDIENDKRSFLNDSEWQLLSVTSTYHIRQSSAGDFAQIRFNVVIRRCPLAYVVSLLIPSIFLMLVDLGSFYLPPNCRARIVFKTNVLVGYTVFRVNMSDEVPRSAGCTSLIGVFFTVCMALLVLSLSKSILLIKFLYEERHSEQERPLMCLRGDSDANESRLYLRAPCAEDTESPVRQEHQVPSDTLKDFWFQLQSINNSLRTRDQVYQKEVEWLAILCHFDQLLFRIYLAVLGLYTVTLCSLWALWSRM
Description: Inhibitory activity against 5-hydroxytryptamine 3 receptor in rat cortical membranes using [3H]- 1-Methyl-1H-indazole-3-carboxylic acid (8-methyl-8-aza-bicyclo[3.2.1]oct-3-yl)-amide as a radioligand. The format is cell membranes.

Assay [2] addresses T1, Serotonin 3 (5-HT3) receptor. The assay is described as follows: pKi value for inhibition of [3H]LY-278584 binding to 5-hydroxytryptamine 3 receptor. Type of assay: protein-complex assay.
Assay [3] addresses 5-hydroxytryptamine receptor 1B (Rattus norvegicus, UniProt P28564). The assay is described as follows: Inhibitory activity against 5-hydroxytryptamine 1B receptor in rat cortical membranes using [3H]5-HT as a radioligand. Type of assay: cell membranes.
Assay [4] deals with Rattus norvegicus. Description: Effective dose required to reduce von benzold jarisch reflex response to 5-HT was determined; Value ranges from 10-30 ug/Kg. Type of assay: functional.
The target of assay [5] is T2, 5-hydroxytryptamine receptor 1A (Rattus norvegicus, UniProt P19327).
T2 sequence (P19327 whole entry): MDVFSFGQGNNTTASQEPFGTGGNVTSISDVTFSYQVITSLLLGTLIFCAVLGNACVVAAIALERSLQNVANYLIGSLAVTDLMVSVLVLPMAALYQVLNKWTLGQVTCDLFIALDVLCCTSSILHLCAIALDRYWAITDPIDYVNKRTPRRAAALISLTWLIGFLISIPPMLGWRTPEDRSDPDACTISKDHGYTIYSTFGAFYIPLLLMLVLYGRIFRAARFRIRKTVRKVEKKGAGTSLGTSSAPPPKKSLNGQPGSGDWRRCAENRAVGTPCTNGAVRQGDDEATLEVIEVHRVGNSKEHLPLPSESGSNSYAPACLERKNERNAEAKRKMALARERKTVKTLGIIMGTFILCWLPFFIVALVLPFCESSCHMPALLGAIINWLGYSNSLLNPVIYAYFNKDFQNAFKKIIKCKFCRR
Description: Inhibitory activity against 5-hydroxytryptamine 1A receptor in rat cortical membranes using [3H]8-OH-DPAT as a radioligand. The format is cell membranes.

Assay [6] relates to Rattus norvegicus. Description: Percentage inhibition 5-HT- mediated bradycardia in rat after 3 ug/Kg of compound administered intravenously. The format is functional.

Chain of 5-hydroxytryptamine receptor 1B (P28564 whole entry): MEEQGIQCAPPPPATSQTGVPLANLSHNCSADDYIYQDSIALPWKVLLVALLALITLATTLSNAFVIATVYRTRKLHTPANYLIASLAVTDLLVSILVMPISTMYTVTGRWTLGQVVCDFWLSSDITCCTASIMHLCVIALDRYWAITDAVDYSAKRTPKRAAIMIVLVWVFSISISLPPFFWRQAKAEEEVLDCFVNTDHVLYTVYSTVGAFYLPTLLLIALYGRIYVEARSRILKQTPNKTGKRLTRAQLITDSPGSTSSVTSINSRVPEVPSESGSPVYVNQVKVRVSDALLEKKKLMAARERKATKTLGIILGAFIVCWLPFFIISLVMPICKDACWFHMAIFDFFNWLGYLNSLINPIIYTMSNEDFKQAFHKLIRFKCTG

On to `CN1C2CCC1CC(NC(=O)c1n[nH]c3ccccc13)C2` (stereo not drawn), for which the results for the Ki in assay [1] and in assay [2] were 4.26 nM and 4.27 nM, respectively.

With `CN1C2CCC1CC(NC(=O)c1c3ccccc3nn1C)C2` (stereo not drawn), the inhibition constant Ki in assay [1] and in assay [2] was 1050 nM each time.

As to `CN1[C@@H]2CC[C@H]1C[C@@H](OC(=O)c1cc(Cl)cc(Cl)c1)C2` [BEMESETRON], the Ki is 26 nM in assay [1] and 25.7 nM in assay [2].

As to `CN1C2CCCC1CC(NC(=O)c1nn(C)c3ccccc13)C2` (stereo not drawn) [GRANISETRON], the Ki in assay [3] and in assay [5] was over 1000 nM each time. The molecule further registered an ED50 in assay [4] of 0.01 mg/kg.

As for `CCN(CC)CCNC(=O)c1cc(Cl)c(N)cc1OC` [METOCLOPRAMIDE], the Ki was 502 nM in assay [1] and 501 nM in assay [2].

For `c1ccc2nc(N3CCNCC3)ccc2c1` [QUIPAZINE], the Ki in assay [1] is 3.04 nM; in assay [2], 3.02 nM.

With `CN1[C@@H]2CC[C@H]1C[C@@H](OC(=O)c1c[nH]c3ccccc13)C2` [TROPISETRON], the Ki in assay [1] was 1.28 nM; in assay [2], 1.29 nM. In addition, in assay [6], the Inhibition was determined as 66%.

For the molecule `COc1cc(N)c(Cl)cc1C(=O)NC1CN2CCC1CC2` (stereo not drawn) [ZACOPRIDE], the Ki in assay [1] is 0.42 nM; in assay [2] it was 0.417 nM.

As usually defined, the Ki is a dissociation constant, usually derived from enzyme kinetics or from competition with a known ligand. A higher Ki goes with a looser hold on the target. In general, ED50 refers to the dose that gives a 50% effect, or the effect in half of the subjects. A lower ED50 goes with greater potency. By Inhibition is commonly meant the drop in the measured response relative to a control, in per cent. High values mean a response far below the control, low ones a response near the control.

For the origin of these results see ChEMBL document CHEMBL1125072, “Synthesis and biochemical evaluation of tritium-labeled 1-methyl-N-(8-methyl-8-azabicyclo[3.2.1]oct-3-yl)-1H-indazole-3-carboxa mide, a useful radioligand for 5HT3 receptors” (J Med Chem, 1990).
